Read-outs that look alike come from different tables or passages of the source.
Columns and labels:
[1] = for RFU change (Correlation analysis): probe-specific excitation λ, emission 545 nm
Procedure, shortened: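 Each LCO probe at 3 μM was added to two-fold serial dilutions of carbohydrate in dH2O (10–0.039 mg/ml for β-1,3-glucan, cellulose, chitin; 5–0.019 mg/ml for the others), run in triplicate. Excitation spectra were scanned 300–500 nm with emission at 545 nm. Detection was a reproducible λmax and/or RFU shift versus negative control, with linear regression of RFU against concentration.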

[2] = Procedure, shortened: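 LCO probes (3 μM) were added to serial two-fold dilutions of carbohydrate suspensions in dH2O, with excitation scanned 300–500 nm and emission at 545 nm. Detection was a reproducible λmax and/or RFU change versus no-carbohydrate control. RFU was regressed linearly against concentration at the λmax or the lowest-background excitation.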
[3] = remark: listed apart in the source
Procedure, shortened: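 LCO probes at 3 μM mixed with serial two-fold carbohydrate dilutions in water (10–0.039 or 5–0.019 mg/ml), run in triplicate. Excitation scanned 300–500 nm with emission at 545 nm; detection based on reproducible λmax or RFU shift against the no-carbohydrate control, with linear regression of RFU on concentration.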

[4] = for RFU change (Correlation analysis): probe-specific excitation λ, emission 545 nm; remark: listed apart in the source
Procedure, shortened: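 LCO probes at 3 μM mixed with serial two-fold dilutions of carbohydrate in dH2O (10–0.039 or 5–0.019 mg/ml, depending on carbohydrate), in triplicate. Excitation scanned 300–500 nm or fixed per probe (λmax or lowest background), emission at 545 nm. Detection taken as reproducible λmax/RFU shift vs no-carbohydrate control; RFU regressed linearly on concentration.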

[5] = for RFU change (Correlation analysis): probe-specific excitation λ, emission 545 nm; for Gradient Parameters (gradient of regression line) / Linear relationship / Quality of Gradient: linear regression
Procedure, shortened: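 LCO probes at 3 μM mixed with serial twofold carbohydrate dilutions in dH2O (10–0.039 or 5–0.019 mg/ml, depending on carbohydrate). Excitation scanned 300–500 nm, emission read at 545 nm; detection defined as reproducible shift in λmax and/or RFU relative to negative control, with linear regression of RFU against concentration.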

[6] = remark: listed apart in the source
Procedure, shortened: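 3 μM of each LCO probe was added to serial two-fold carbohydrate dilutions in water (10–0.039 or 5–0.019 mg/ml). Excitation spectra were scanned 300–500 nm with emission at 545 nm, in triplicate. Detection was defined as a reproducible shift in λmax and/or RFU versus negative control, with linear regression of RFU against concentration.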

[7] = Chitin 10-[…], 3 μM probe, spectral analysis, Excitation 300-500, Emission 545
[8] = cellulose concentration vs RFU, linear regression
[9] = chitin concentration vs RFU, linear regression
[10] = β-1,3-glucan concentration vs RFU, linear regression
[11] = sodium alginate concentration vs RFU, linear regression
[12] = glucose concentration vs RFU, linear regression
[13] = Cellulobiose 5-0.019 mg/ml, 3 μM probe, spectral analysis, Excitation 300-500, Emission 545
[14] = amylose concentration vs RFU, linear regression
[15] = cellulobiose concentration vs RFU, linear regression
[16] = Glycogen 5-0.019 mg/ml, 3 μM probe, spectral analysis, Excitation 300-500, Emission 545
[17] = Chondroitin Sulfate A 5-0.019 mg/ml, 3 μM probe, spectral analysis, Excitation 300-500, Emission 545
[18] = Chondroitin Sulfate A concentration vs RFU, linear regression

O=C(Cc1cc(-c2cccs2)sc1-c1ccc(-c2sc(-c3cccs3)cc2CC(=O)N[C@@H](Cc2ccc([O-])cc2)C(=O)[O-])s1)N[C@@H](Cc1ccc([O-])cc1)C(=O)[O-].[Na+].[Na+].[Na+].[Na+] [pHTA-Tyr, penta Hydrogen Thiophene Acetic acid Tyrosine]
RFU change (Correlation analysis) ([1]; Cellulose 10-[…], 3 μM probe): Unclear | RFU change (Signal deviation with increasing [Carbohydrate]) ([1]; Cellulose 10-[…], 3 μM probe, spectral analysis, Excitation 300-500, Emission 545): Unclear | RFU change (Correlation analysis) ([1]; Chitin 10-[…], 3 μM probe): Increases | RFU change (Signal deviation with increasing [Carbohydrate]) [1, 7]: Increases | λmax change [1, 7]: Redshift | carbohydrate can be detected and/or differentiated by the LCO ([1]; Chitin, conclusion from change in signal magnitude and/or shift in λmax): can be detected and/or differentiated | Gradient Parameters (gradient of regression line) [1, 8]: −51.4 ± 45.0 | Quality of Gradient [1, 8]: Horizontal | Gradient Parameters (gradient of regression line) [1, 9]: 972.3 ± 109.7 | Linear relationship [1, 9]: Significant | Quality of Gradient [1, 9]: Positive | Sensitivity ([1]; to cellulose): No | Sensitivity ([1]; to chitin): Yes | Sensitivity ([1]; to β-1,3-glucan): No | RFU change (Correlation analysis) ([1]; β-1,3-glucan 10-[…], 3 μM probe): Decrease | RFU change (Signal deviation with increasing [Carbohydrate]) ([1]; β-1,3-glucan 10-[…], 3 μM probe, spectral analysis, Excitation 300-500, Emission 545): Decrease | Gradient Parameters (gradient of regression line) [1, 10]: −53.2 ± 47.5 | Quality of Gradient [1, 10]: Horizontal | RFU change (Correlation analysis) ([2]; Sodium alginate 5-0.019 mg/ml, 3 μM probe, probe-specific excitation λ, emission 545 nm): Unclear | RFU change (Signal deviation with increasing [Carbohydrate]) ([2]; Sodium alginate 5-0.019 mg/ml, 3 μM probe, spectral analysis, Excitation 300-500, Emission 545): Increases | Gradient Parameters (gradient of regression line) [2, 11]: 30.9 ± 175.5 | Quality of Gradient [2, 11]: Horizontal | Sensitivity ([2]; to sodium alginate): No | RFU change (Correlation analysis) ([3]; Glucose 5-0.019 mg/ml, 3 μM probe, probe-specific excitation λ, emission 545 nm): Increases | RFU change (Signal deviation with increasing [Carbohydrate]) ([3]; Glucose 5-0.019 mg/ml, 3 μM probe, spectral analysis, Excitation 300-500, Emission 545): Increases | carbohydrate can be detected and/or differentiated by the LCO ([3]; Glucose, conclusion from change in signal magnitude and/or shift in λmax): can be detected and/or differentiated | Gradient Parameters (gradient of regression line) [3, 12]: 799.4 ± 95.1 | Linear relationship [3, 12]: Significant | Quality of Gradient [3, 12]: Positive | Sensitivity ([3]; to glucose): Yes | RFU change (Correlation analysis) ([4]; Amylose 5-0.019 mg/ml, 3 μM probe): Unclear | RFU change (Signal deviation with increasing [Carbohydrate]) ([4]; Amylose 5-0.019 mg/ml, 3 μM probe, spectral analysis, Excitation 300-500, Emission 545): Unclear | RFU change (Correlation analysis) ([4]; Cellulobiose 5-0.019 mg/ml, 3 μM probe): Increases | RFU change (Signal deviation with increasing [Carbohydrate]) [4, 13]: Increases | λmax change [4, 13]: No change | carbohydrate can be detected and/or differentiated by the LCO ([4]; Cellulobiose, conclusion from change in signal magnitude and/or shift in λmax): can be detected and/or differentiated | Gradient Parameters (gradient of regression line) [4, 14]: −133.1 ± 128.5 | Quality of Gradient [4, 14]: Horizontal | Gradient Parameters (gradient of regression line) [4, 15]: 56.7 ± 16 | Linear relationship [4, 15]: Significant | Quality of Gradient [4, 15]: Positive | Sensitivity ([4]; to amylose): No | Sensitivity ([4]; to cellulobiose): Yes | RFU change (Correlation analysis) ([5]; Glycogen 5-0.019 mg/ml, 3 μM probe): Decreases | RFU change (Signal deviation with increasing [Carbohydrate]) [5, 16]: Decreases | λmax change [5, 16]: Redshift | carbohydrate can be detected and/or differentiated by the LCO ([5]; Glycogen, conclusion from change in signal magnitude and/or shift in λmax): can be detected and/or differentiated | RFU change (Correlation analysis) ([5]; Heparin 5-0.019 mg/ml, 3 μM probe): Increases | RFU change (Signal deviation with increasing [Carbohydrate]) ([5]; Heparin 5-0.019 mg/ml, 3 μM probe, spectral analysis, Excitation 300-500, Emission 545): Increases | Gradient Parameters (gradient of regression line) ([5]; glycogen concentration vs RFU): −2062 ± 216.6 | Linear relationship ([5]; glycogen concentration vs RFU): Significant | Quality of Gradient ([5]; glycogen concentration vs RFU): Negative | Gradient Parameters (gradient of regression line) ([5]; heparin concentration vs RFU): 74.5 ± 80.7 | Linear relationship ([5]; heparin concentration vs RFU): Not Significant | Quality of Gradient ([5]; heparin concentration vs RFU): Horizontal | Sensitivity ([5]; to glycogen): Yes | Sensitivity ([5]; to heparin): No | RFU change (Correlation analysis) ([6]; Chondroitin Sulfate A 5-0.019 mg/ml, 3 μM probe, probe-specific excitation λ, emission 545 nm): Increases | RFU change (Signal deviation with increasing [Carbohydrate]) [6, 17]: Increases | λmax change [6, 17]: No change | Gradient Parameters (gradient of regression line) [6, 18]: 163.3 ± 61.5 | Linear relationship [6, 18]: Significant | Quality of Gradient [6, 18]: Positive | carbohydrate can be detected and/or differentiated by the LCO ([6]; Chondroitin sulfate A, conclusion from change in signal magnitude and/or shift in λmax): can be detected and/or differentiated | Sensitivity ([6]; to Chondroitin Sulfate A): Yes

From patent US9958439B2, “Carbohydrate detection” (RICHTER LIFE SCIENCE DEVELOPMENT AB, priority 2012, dated 2018)
